Measurements taken from patent publication US4548819A, “Derivatives of 9-(2-hydroxyethoxymethyl) guanine” (priority 1983, dated 1985).
Values after ≈ are worked out from the molar mass of the structure shown. Counter-ions that a name gives are not always drawn.

Columns and labels:
[1] = system: HSV-1 (KOS); experiment: Antiviral activity in vitro: retardation of virus-induced cytopathogenicity in primary rabbit kidney cells, HSV-1 (KOS); type: cell-based, herpes simplex virus, Type 1; details: Human alphaherpesvirus 1, average of 2 or 3 determinations, read-out: Minimum Inhibitory Concentration (concentration necessary to reduce by 50% the cytopathogenicity induced by the virus)
Description: (§1) In a series of biological tests an investigation was made of the activity of the compounds of Examples 1-3 in comparison with acyclovir against various viruses in cell cultures of primary rabbit kidney cells.
(§2) The viruses used were: herpes simplex type 1 (strains KOS, Mc Intyre and F) and herpes simplex type 2 (strains Lyons, G and 196).
(§3) The origin of the six herpes simplex strains and the method for the measurement of the retardation of the cytopathogenicity induced by the virus are described by E. de Clercq et al. in J. Infect Dis., 141, 563 (1980).
(§4) The results of the tests are reproduced in the following table, where they are expressed in the minimum inhibitory concentration, that is to say the concentration (in μg/ml) which is necessary to reduce by 50% the cytopathogenicity induced by the virus in the cell culture. In all cases average values of 2 or 3 separate determinations are given.

[2] = system: HSV-1 (F); experiment: Antiviral activity in vitro: retardation of virus-induced cytopathogenicity in primary rabbit kidney cells, HSV-1 (F); type: cell-based, herpes simplex virus, Type 1; details: Human alphaherpesvirus 1, average of 2 or 3 determinations, read-out: Minimum Inhibitory Concentration (concentration necessary to reduce by 50% the cytopathogenicity induced by the virus)
Description: as §1, §2, §3, §4

[3] = system: HSV-2 (Lyons); experiment: Antiviral activity in vitro: retardation of virus-induced cytopathogenicity in primary rabbit kidney cells, HSV-2 (Lyons); type: cell-based, herpes simplex virus, Type 2; details: Human alphaherpesvirus 2, average of 2 or 3 determinations, read-out: Minimum Inhibitory Concentration (concentration necessary to reduce by 50% the cytopathogenicity induced by the virus)
Description: as §1, §2, §3, §4

[4] = system: HSV-2 (G); experiment: Antiviral activity in vitro: retardation of virus-induced cytopathogenicity in primary rabbit kidney cells, HSV-2 (G); type: cell-based, herpes simplex virus, Type 2; details: Human alphaherpesvirus 2, average of 2 or 3 determinations, read-out: Minimum Inhibitory Concentration (concentration necessary to reduce by 50% the cytopathogenicity induced by the virus)
Description: as §1, §2, §3, §4

[5] = system: herpes viruses; details: H. J. Schaeffer et al, Nature, 272, 583-585 (1978); cited from earlier work
[6] = system: HSV-2 (196); experiment: Antiviral activity in vitro: retardation of virus-induced cytopathogenicity in primary rabbit kidney cells, HSV-2 (196); type: cell-based, herpes simplex virus, Type 2; details: Human alphaherpesvirus 2, average of 2 or 3 determinations, read-out: Minimum Inhibitory Concentration (concentration necessary to reduce by 50% the cytopathogenicity induced by the virus)
Description: as §1, §2, §3, §4

[7] = system: HSV-1 (McIntyre); experiment: Antiviral activity in vitro: retardation of virus-induced cytopathogenicity in primary rabbit kidney cells, HSV-1 (McIntyre); type: cell-based, herpes simplex virus, Type 1; details: Human alphaherpesvirus 1, average of 2 or 3 determinations, read-out: Minimum Inhibitory Concentration (concentration necessary to reduce by 50% the cytopathogenicity induced by the virus)
Description: as §1, §2, §3, §4

[8] = system: HSV-1 (strain McIntyre); experiment: Antiviral activity in vivo: HSV-1 stromal keratitis in rabbits, eye drops
Experimental: The in vivo antiviral activity of the compound of Example 1 was compared with the known antiviral bromovinyldeoxyuridine.
Eye drops containing 0.5% (w/v) of bromovinyldeoxyuridine or 1% w/v of compound of Example 1 were prepared in an isotonic borate buffer containing 1.52 g boric acid, 0.008 g borax and 0.01 g benzalkoniumchloride in 100 ml distilled water. The pH of the solution was 5.7. The vehicle alone without any antiviral ingredients was used as placebo. The eye drops were coded.
A cross-breed of California albino and Dendermonde white rabbits, weighing between 1.5 and 2 kg, were used.
Thirty rabbits were used to produce stromal keratitis according to the technique of McNeill and Kaufman (Arch. Ophthalmol. 97: 727-729, 1979). Rabbits were anesthetized by a subcutaneous injection of fentanyl citrate at 1 ml/kg. A 0.2 ml virus suspension, containing 10^4.5 plaque-forming units of HSV-1 (strain McIntyre) per ml, was injected into the central corneal stroma of both eyes.
The rabbits were numbered serially and allocated at random to three groups of […] rabbits each. Treatment consisted of administration of eye drops containing the compound of Example 1, bromovinyldeoxyuridine, or placebo eye drops. Treatment was started one day after virus inoculation. One drop of the eye drop formulation was instiled into the eye at hourly intervals, nine times as day. Therapy was continued for 5 consecutive days. Both eyes of each rabbit received the same modification.
The severity of keratitis was evaluated daily by the same person using a slitlamp. White illumination was used to examine the corneal stroma and anterior chamber structures. One percent fluorescein sodium eye drops and a cobalt blue filter were employed to judge epithelial keratitis and corneal ulceration.

[9] = eye drops, Example 1 at 1% w/v or bromovinyldeoxyuridine at 0.5% w/v
[10] = iritis accompanying stromal HSV-1 keratitis, eye drops

Row | Structure (SMILES) | IC50 [1] | IC50 [2] | IC50 [3] | IC50 [4] | antiviral activity [5] | IC50 [6] | IC50 [7] | difference in keratitis score versus placebo [8, 9] | progression or healing of stromal disease [8, 9] | suppression of stromal keratitis ([8]; eye drops, Example 1 at 1% w/v or bromovinyldeoxyuridine at 0.5% w/v, hourly nine times a day, 5 days) | difference in iritis scores versus placebo [8, 10] | reduction in the iritis scores [8, 10] | mean keratitis scores ([8]; once treatment was initiated, 1% w/v eye drops)
1 | Nc1nc2c(ncn2COCCO)c(=O)[nH]1 [Acyclovir, 9-(2-Hydroxyethoxymethyl)guanine, reference compound] | 0.08 µg/mL (≈ 0.355 µM) | 0.09 µg/mL (≈ 0.4 µM) | 0.04 µg/mL (≈ 0.178 µM) | 0.06 µg/mL (≈ 0.266 µM) | potential antiviral activity, particularly against herpes viruses | 0.06 µg/mL (≈ 0.266 µM) | 0.1 µg/mL (≈ 0.444 µM) |  |  |  |  |  | 
2 | Cl.NCC(=O)OCCOCn1cnc2c(=O)[nH]c(N)nc21 [Example 1, 9-(2-glycyloxyethoxymethyl)guanine hydrochloride] | 0.1 µg/mL | 0.1 µg/mL | 0.04 µg/mL | 0.08 µg/mL |  | 0.07 µg/mL | 0.1 µg/mL | statistically significant throughout the whole observation period | prevented the progression of stromal disease | effective in suppressing stromal keratitis | significant from day 2 till day 8 | significant reduction in the iritis scores | remained nearly constant
3 | CC(N)C(=O)OCCOCn1cnc2c(=O)[nH]c(N)nc21 (stereo not drawn) [Example 2, 9-(2-0-α-alanyloxyethoxymethyl)guanine hydrochloride] | 0.4 µg/mL | 0.4 µg/mL | 0.07 µg/mL | 0.2 µg/mL |  | 0.1 µg/mL | 0.4 µg/mL |  |  |  |  |  | 
4 | NCCC(=O)OCCOCn1cnc2c(=O)[nH]c(N)nc21 [Example 3, 9-(2-0-β-alanyloxyethoxymethyl)guanine hydrochloride] | 0.2 µg/mL | 0.5 µg/mL | 0.1 µg/mL | 0.15 µg/mL |  | 0.1 µg/mL | 0.4 µg/mL |  |  |  |  |  | 
